From patent publication US9132118B2, “Taxane analogs for the treatment of brain cancer” (Tapestry Pharmaceuticals, Inc., priority 2007, dated 2015)

Experiments:
[1] = tested on: bovine microtubule protein (tubulin plus microtubule associated proteins); test: In vitro ED50 MT polymerization study (DAPI fluorescence tubulin assay); type: biochemical; conditions: for ED50 Compound/ED50 Paclitaxel: ratio of tubulin polymerization ED50 values; for EC50: tubulin polymerization, 37° C. 30 minutes, percent of maximum assembly at 25 μM paclitaxel
Method: In this tubulin binding assay, microtubule protein (MTP) is used as a substrate. The assay contains bovine tubulin plus microtubule associated proteins (MAP). MTP is polymerized into microtubules in the presence of DAPI (4′,6′-diamidino-2-phenylindole), a fluorescent compound. DAPI binds to tubulin; when microtubules are formed and there is an enhancement of fluorescence. The microtubule formation is measured as a function of time, using a fluorescence plate reader. […] The method used is based on the procedure published by Donna M. Barron, et al, “Fluorescence-based high-throughput assay for antimicrotuble drugs” Analytical Biochemistry, 315: 49-56, 2003, which is incorporated by reference in its entirety. The excitation wavelength, in that assay, was set at 370 nm and the emission wavelength was set at 450 nm for the DAPI experiments.
A Bio-Tek FL 600 microplate Fluorescence Reader was used to measure the relative level of fluorescence in the DAPI assay.
Assays were conducted in 96-well plates. […] The final DMSO concentration was 4%. The plates were incubated at 37° C. for 30 minutes and read in a fluorescence plate reader using an excitation wavelength of 360 nm and an emission wavelength of 460 nm. Fluorescence values were corrected for the sample without compound. […] Experiments were done twice in triplicate. Results were subsequently combined and fit to a non-linear regression program.

[2] = tested on: human U251 (glioblastoma) CNS tumor cells
Excerpt: Tumor Model: Each animal was implanted with one million U251 human CNS tumor cells from an in vitro cell line by ic injection with a 25 gauge needle. The day of tumor implantation (May 24, 2006) was designated as day 0. A sufficient number of mice were implanted so that animals with body weights in a range as narrow as possible were selected for the trial on the day of treatment initiation (day 1 after tumor implantation). Animals were randomly assigned to the treatment groups and individually identified by earmark codes.
A portion of this solution was then diluted with the complete vehicle to achieve the lower dosing concentration of 1.2 mg/mL. […] Temozolomide (Temodar, Schering Corporation) was prepared on each day of injection in Klucel+tween 80 at a concentration of 4 mg/mL. Temozolomide was administered within 5 minutes of formulation on the basis of exact body weight using a volume of 0.2 mL/10 g of body weight.
Data Collection: Animal health surveillance was conducted and mortality data were collected daily. The animals were weighed twice weekly starting with the first day of treatment.
Study Duration: The study was terminated 100 days after tumor implantation. Any animal found moribund or whose body weight dropped below 14 g was euthanized prior to study termination.
Parameters Evaluated: Number of 100-day survivors, median day of death, and the increase in lifespan based on median day of death and expressed as a percentage (% ILS), median survival time and the % ILS based on median survival time.
Administration of the Ringer's solution was initiated when animal body weights dropped by greater than 10% and continued until the animal recovered, died, or was euthanized.

[3] = temozolomide 80 mg/kg/dose po q4d×3

Row | SMILES | ED50 Compound/ED50 Paclitaxel [1] | EC50 [1] | ILS ([2]; Group 4: TMZ 80 mg/kg, po. QD1, 5, 9) | loss in mean body weight [2, 3] | treatment-related deaths (in words) [2, 3]
1 | CC(=O)O[C@@]12CO[C@@H]1C[C@H](O)[C@@]1(C)C(=O)[C@H](O)C3=C(C)[C@@H](OC(=O)[C@H](O)[C@@H](NC(=O)OC(C)(C)C)c4ccccc4)C[C@@](O)([C@@H](OC(=O)c4ccccc4)[C@H]21)C3(C)C [Docetaxel, docetaxel] | 1.07 | 3.18 ± 0.45 µM | – | – | –
2 | C/C(=C\c1csc(C)n1)[C@@H]1C[C@@H]2O[C@]2(C)CCC[C@H](C)[C@H](O)[C@@H](C)C(=O)C(C)(C)[C@@H](O)CC(=O)O1 [Epothilone B] | 1.11 | 3.31 ± 0.51 µM | – | – | –
3 | Cn1nnc2c(C(N)=O)ncn2c1=O [Temozolomide, reference compound] | – | – | 380% | 8% | without treatment-related deaths
